Measurements: patent US20230258624A1, “Ex vivo tumour immune microenvironment model, a method for preserving a tumour-specific immune cell profile in an ex vivo tumour immune microenvironment model and use of nanofibrillar cellulose” (UPM-Kymmene Corporation, priority 2022, published 2023)

System: PDECs
Assay: Cytokine profiling (ELISA) of PDEC growth media
Assay type: cell-based, human
Description: Media (1 ml) collected from NFC-grown PDECs or PBMCs at day 3 and day 7 timepoints was stored at −80° C. until the day of analysis. […] Cell and matrix debris were removed after thawing by centrifugation (10 min, 10 000 G, RT). Cytokines secreted to growth media were analyzed with R&D DuoSetELISA kits (IL2: DY202-05, IL-10: DY217B-05, TNF-α: DY210-05, IFN-γ: DY285B-05, IL-4: DY204-05, IL-6: DY206-05, IL-1β/IL1F2: DY201-05, LAP (TGF-β1): DY246-05) together with DuoSet Ancillary Reagent Kit 2 (DY008), according to manufacturer's protocol. Briefly, plates were coated with capture antibody overnight at RT, washed 3 times and blocked with 1% BSA in PBS for 1 hour. Samples diluted in growth media were added and incubated for 2 hours at RT. After 3 washes, detection antibody was added and incubated for 2 hours at RT. After washes, Streptavidin-HRP was added and incubated for 20 min at RT, protected from light. After washes, Substrate solution was added for 20 min, protected from light, after which the reaction was stopped with stop solution and absorbance was immediately determined using a microplate reader set to 450 nm, and 540 nm to subtract background (Omega Fluostar, BMG Labtech).

O=C(O)CCCC[C@@H]1SC[C@@H]2NC(=O)N[C@@H]21 [biotin]
amount of inflammatory cytokine IFN-γ (1 μM biotin added to PDEC growth media, NFC cultures): clearly decreased
inflammatory cytokine secretion into the media (biotin added to growth media after functionalization of the matrix): clearly decreased
